# Marks after values point to notes of the source that are not given here.
# Tests used:
# LLC-bearing mice = test: Antitumor effect of GLP-3 combined with chemotherapy on LLC-bearing mice (tumor volume, inhibition rates, tumor index); type: in vivo, C57 mice; conditions: cisplatin 4 mg/kg ip q3d
# Procedure: Healthy LLC cells were inoculated subcutaneously into the left shoulder of 5 healthy male C57 mice. […] This suspension was then injected subcutaneously into the axilla of 60 healthy male C57 mice to establish a solid tumor model. […] Longest and shortest diameters of tumors were measured every three days to calculate tumor volume, and mouse weights were recorded every three days. At the end of the experiment, tumors, spleens, and thymuses were harvested and weighed to calculate tumor, spleen, and thymus indices. […] [table] […] Where TRTV is the relative tumor volume in the experimental group, and CRTV is the relative tumor volume in the model control group. Relative tumor volume (RTV)=Vt/V0, where Vt is the tumor volume on day t of dosing, and V0 is the tumor volume at the time of grouping. Evaluation criteria: […] Where T represents the average tumor weight in the treatment group, and C represents the average tumor weight in the model control group. Evaluation criteria: […] Tumor index (%)=(tumor weight/body weight)×100%.
# [1] = Mortality, body weight, spleen and thymus indices in LLC-bearing mice; type: in vivo, C57 mice; conditions: cisplatin 4 mg/kg ip q3d
# Procedure: Healthy LLC cells were inoculated subcutaneously into the left shoulder of 5 healthy male C57 mice. Once tumors reached a volume of 2,000-3,000 mm^3, they were harvested and homogenized to prepare a homogenate suspension. This suspension was then injected subcutaneously into the axilla of 60 healthy male C57 mice to establish a solid tumor model. Once all mouse tumors averaged a volume of about 150 mm^3, mice were randomized into groups based on tumor volume and were administered the respective drugs or drug solvents via oral gavage or intraperitoneal injection for 19 consecutive days. Longest and shortest diameters of tumors were measured every three days to calculate tumor volume, and mouse weights were recorded every three days. At the end of the experiment, tumors, spleens, and thymuses were harvested and weighed to calculate tumor, spleen, and thymus indices.
# (§1) Spleen and thymus organ coefficients: After the last dose, spleen, thymus, and tumor weights are measured, and organ coefficients are calculated.
# (§2) Immune organ index (mg/g)=(organ mass/body weight)×1000.
# H22-bearing mice = test: Antitumor effect of GLP-3 combined with chemotherapy on H22-bearing mice (tumor volume, inhibition rates, tumor index); type: in vivo, C57 mice; conditions: sc H22 mice, cisplatin 3 mg/kg ip q3d
# Procedure: Longest and shortest diameters of tumors were measured every three days to calculate tumor volume, and mouse weights were recorded every three days. At the end of the experiment, tumors, spleens, and thymuses were harvested and weighed to calculate tumor, spleen, and thymus indices. […] [table] […] Where TRTV is the relative tumor volume in the experimental group, and CRTV is the relative tumor volume in the model control group. Relative tumor volume (RTV)=Vt/V0, where Vt is the tumor volume on day t of dosing, and V0 is the tumor volume at the time of grouping. Evaluation criteria: […] Where T represents the average tumor weight in the treatment group, and C represents the average tumor weight in the model control group. Evaluation criteria: […] Tumor index (%)=(tumor weight/body weight)×100%.
# [2] = Mortality, body weight, spleen and thymus indices in H22-bearing mice; type: in vivo, C57 mice; conditions: sc H22 mice, cisplatin 3 mg/kg ip q3d
# Procedure: A homogenate suspension of H22 hepatoma solid tumors was injected subcutaneously under the axilla of 50 healthy male C57 mice to create a solid tumor model. Once all mouse tumors averaged a volume of about 200 mm^3, mice were randomized into groups based on tumor volume and were administered the respective drugs or drug solvents via oral gavage or intraperitoneal injection for 22 consecutive days. Longest and shortest diameters of tumors were measured every three days to calculate tumor volume, and mouse weights were recorded every three days. At the end of the experiment, tumors, spleens, and thymuses were harvested and weighed to calculate tumor, spleen, and thymus indices.
# as §1, §2
# [3] = system: orthotopic H22-bearing mice; test: Tumor by small animal in vivo imaging, GLP-3 combined with radiotherapy, orthotopic H22-bearing mice; parameters: species or system C57 mice; conditions: radiotherapy 2 Gy/d + cisplatin 4 mg/kg ip q3d
# Procedure: This study used the proposed clinical dose as a basis for the experiment. The radiotherapy intensity for this study was designed to be 2 Gy per day. [table] Tumor volume measurement: Tumor volume changes were measured weekly using small animal in vivo imaging technology.
# [4] = Mortality, body weight and organ coefficients in orthotopic H22-bearing mice; conditions: radiotherapy 2 Gy/d + cisplatin 4 mg/kg ip q3d
# Text: (§3) Liver cancer (H22) cells, labeled with Luc fluorescent marker at a concentration of 1×10^7 cells/mL, were initially inoculated into the peritoneal cavity of 8 male C57 mice. After the development of ascites, the ascitic fluid was aseptically extracted, washed with HBSS buffer, centrifuged to discard the supernatant, and stained with Trypan Blue, and cells in the ascitic fluid were counted under a microscope. The cell concentration was adjusted to […] with HBSS buffer and inoculated into the right hepatic region of 80 male C57 mice, at a volume of 10 μL per mouse, to prepare the orthotopic tumor-bearing mice. One week later, the liver tumor formation in mice was detected using a small animal in vivo imaging system. […] An additional 10 mice served as the normal control group. Except for the normal control group, all other animals underwent radiotherapy using an animal radiotherapy instrument. The animals were anesthetized, placed in homemade lead clothing, and the tumor tissue was exposed for radiation treatment at an intensity of 2 Gy/day for 5 consecutive days. The normal control group and the model control group were administered pure water by oral gavage. […] After the last dose, blood was collected from the orbital plexus to test blood WBC, RBC, liver and kidney function indicators (ALT, AST, BUN, CRE), and CD3^+/CD4^+, CD3^+/CD8^+ ratios. The spleen, thymus, and tumors were weighed to calculate organ coefficients, and the liver, spleen, and thymus underwent histopathological examination.
# Animal survival and general condition: Weight was recorded weekly, along with any deaths among the animals.
# Immune organs: The thymus, spleen, tumor, and liver were weighed, and organ coefficients were calculated as follows: organ coefficient (%)=organ weight/fasting body weight×100%.
# [5] = system: lymphocyte subtypes CD3^+/CD4^+ and CD3^+/CD8^+; test: Blood CD3+/CD4+ and CD3+/CD8+ ratios by flow cytometry in orthotopic H22-bearing mice; type: in vivo, C57 mice; conditions: radiotherapy 2 Gy/d + cisplatin 4 mg/kg ip q3d, after the last dose, Mean ± SEM
# Procedure: CD4^+ and CD8^+ content measurement: After the last dose, lymphocyte subtypes CD3^+/CD4^+ and CD3^+/CD8^+ in the blood were measured using flow cytometry.
# [6] = Histopathological examination of liver, spleen and thymus in orthotopic H22-bearing mice; type: in vivo, C57 mice; conditions: radiotherapy 2 Gy/d + cisplatin 4 mg/kg ip q3d
# Text: as §3, with “The spleen, thymus, and tumors were weighed to calculate organ coefficients, and the liver, spleen, and thymus underwent histopathological examination.” left out
# [7] = after the last dose, Mean ± SEM
smiles,measurement,setting,value
N.N.[Cl][Pt][Cl] [Cisplatin],Tumor volume,LLC-bearing mice; D0,137.9 ± 50^ mm^3
same,Relative tumor growth inhibition rate (compared to model control group),LLC-bearing mice; D3,4.3%
same,Tumor volume,LLC-bearing mice; D3,300.1 ± 102.7 mm^3
same,Relative tumor growth inhibition rate (compared to model control group),LLC-bearing mice; D6,30.0%
same,Tumor volume,LLC-bearing mice; D6,486.6 ± 188.9 mm^3
same,Relative tumor growth inhibition rate (compared to model control group),LLC-bearing mice; D9,54.6^+ %
same,Tumor volume,LLC-bearing mice; D9,771.3 ± 256^+ mm^3
same,Relative tumor growth inhibition rate (compared to model control group),"LLC-bearing mice; D9, listed as cisplatin",54.6%
same,Relative tumor growth inhibition rate (compared to model control group),LLC-bearing mice; D12,63.8^+ %
same,Tumor volume,LLC-bearing mice; D12,1173.9 ± 488.8^+ mm^3
same,Relative tumor growth inhibition rate (compared to model control group),"LLC-bearing mice; D12, listed as cisplatin",63.8%
same,Relative tumor growth inhibition rate (compared to model control group),LLC-bearing mice; D15,77.3^+ %
same,Tumor volume,LLC-bearing mice; D15,1409.5 ± 820.5^+ mm^3
same,Relative tumor growth inhibition rate (compared to model control group),"LLC-bearing mice; D15, listed as cisplatin",77.3%
same,Relative tumor growth inhibition rate (compared to model control group),LLC-bearing mice; D19,79.5^+ %
same,Tumor volume,LLC-bearing mice; D19,1771.9 ± 1091.6^+ mm^3
same,Relative tumor growth inhibition rate (compared to model control group),"LLC-bearing mice; D19, listed as cisplatin",79.5%
same,Tumor index,LLC-bearing mice; after the last dose,9.09 ± 4.19^+ %
same,Tumor growth inhibition rate vs. the model control group,LLC-bearing mice; by average tumor weight,74.4%
same,Mortality rate,[1]; 19 days,0.0%
same,Number of deaths,[1]; 19 days,0
same,Survival time,[1]; 19 days,19 ± 0 days
same,Weight,[1]; D0,21.5 ± 1.3 g
same,Weight,[1]; D3,20.9 ± 1.3^ g
same,Weight,[1]; D6,20.4 ± 1.9^+ g
same,Weight,[1]; D9,18.3 ± 2.6^+ g
same,Weight,[1]; D12,18.6 ± 2.8^+ g
same,Weight,[1]; D15,17.7 ± 2.7^+ g
same,Weight,[1]; D19,16.8 ± 2.8^+ g
same,Spleen index,[1]; after the last dose,2.84 ± 0.77^+ mg/g
same,Tumor volume,H22-bearing mice; D0,188.2 ± 48.7 mm^3
same,Relative tumor growth inhibition rate (compared to model control group),H22-bearing mice; D3,11.7%
same,Tumor volume,H22-bearing mice; D3,338.6 ± 69.1 mm^3
same,Relative tumor growth inhibition rate (compared to model control group),H22-bearing mice; D6,19.5%
same,Tumor volume,H22-bearing mice; D6,356.9 ± 77.9 mm^3
same,Relative tumor growth inhibition rate (compared to model control group),H22-bearing mice; D9,53.1^+ %
same,Tumor volume,H22-bearing mice; D9,598.5 ± 219.2^+ mm^3
same,Relative tumor growth inhibition rate (compared to model control group),"H22-bearing mice; D9, listed as cisplatin",53.1%
same,Relative tumor growth inhibition rate (compared to model control group),H22-bearing mice; D12,64.4^+ %
same,Relative tumor growth inhibition rate (compared to model control group),"H22-bearing mice; D12, listed as cisplatin",64.4%
same,Relative tumor growth inhibition rate (compared to model control group),H22-bearing mice; D15,73.1^+ %
same,Tumor volume,H22-bearing mice; D15,900.4 ± 376.4^+ mm^3
same,Relative tumor growth inhibition rate (compared to model control group),"H22-bearing mice; D15, listed as cisplatin",73.1%
same,Relative tumor growth inhibition rate (compared to model control group),H22-bearing mice; D18,71.6^+ %
same,Tumor volume,H22-bearing mice; D18,1098.3 ± 397^+ mm^3
same,Relative tumor growth inhibition rate (compared to model control group),"H22-bearing mice; D18, listed as cisplatin",71.6%
same,Relative tumor growth inhibition rate (compared to model control group),H22-bearing mice; D22,75.0^+ %
same,Tumor volume,H22-bearing mice; D22,1526.5 ± 535.7^+ mm^3
same,Relative tumor growth inhibition rate (compared to model control group),"H22-bearing mice; D22, listed as cisplatin",75.0%
same,Tumor index,H22-bearing mice; after the last dose,6.6 ± 2.2^+ %
same,Tumor growth inhibition rate vs. the model control group,H22-bearing mice; by average tumor weight,75.7%
same,Mortality rate,[2]; 22 days,0.0%
same,Number of deaths,[2]; 22 days,0
same,Survival time,[2]; 22 days,22 ± 0 days
same,Weight,[2]; D0,18.9 ± 0.8^+ g
same,Weight,[2]; D3,19.9 ± 0.7 g
same,Weight,[2]; D6,19.5 ± 0.6^+ g
same,Weight,[2]; D9,19.6 ± 0.8 g
same,Weight,[2]; D12,19.5 ± 0.8^+ g
same,Weight,[2]; D15,19.2 ± 0.7^+ g
same,Weight,[2]; D18,18.5 ± 0.9^+ g
same,Spleen index,[2]; after the last dose,3.4 ± 0.3^+ mg/g
same,Thymus index,[2]; after the last dose,0.6 ± 0.1 mg/g
same,Tumor,"[3]; W 0, Mean ± SEM",766250 ± 515323
same,Tumor,"[3]; W 1, Mean ± SEM",5188000 ± 2224171
same,Mortality rate,[4]; 14 days,60%
same,Number of deaths,[4]; 14 days,6
same,Number of surviving animals,[4]; 14 days,4
same,Weight,"[4]; W0, Mean ± SEM",17.1 ± 0.4^++ g
same,Weight,"[4]; W1, Mean ± SEM",13.6 ± 0.9**^ g
same,Weight,"[4]; W2, Mean ± SEM",14.6 ± 1.0 g
same,Liver coefficient,[4]; [7],7.962 ± 0.914 %
same,Spleen coefficient,[4]; [7],0.424 ± 0.140 %
same,Thymus coefficient,[4]; [7],0.039 ± 0.017%
same,CD3^+/CD4^+,[5],23.05 ± 12.70
same,CD3^+/CD8^+,[5],126.56 ± 67.07
same,"Histopathology of liver, spleen and thymus",[6],"extensive H22 cell infiltration and necrosis were observed along with increased extramedullary hematopoiesis in the spleen and a decreased number of white pulp cells, with a reduction in thymic lymphocyte counts"
